Assay results as given in paper PMC4503722, “Novel Phenotypic Outcomes Identified for a Public Collection of Approved Drugs from a Publicly Accessible Panel of Assays” (PLoS ONE, 2015).

Columns and labels:
[1] = system: endothelial tube formation in co-cultures of ECFCs and ADSCs treated with VEGF; experiment: cells; type: cell-based, human
[2] = system: nuclear β-catenin in C2C12 cells; experiment: cells; type: cell-based; conditions: concentration response; for WntCondMedia_bCatenin C2C12 IC50/EC50: assay number 5
[3] = system: alkaline phosphatase (ALP) activity in C2C12 cells; type: cell-based; conditions: concentration response; for WntCondMedia_Alk Phos C2C12 IC50/EC50: assay number 6
HeLa cells = experiment: cells; type: cell-based; conditions: for Hela CellCycMod PI 2N IC50/EC50: assay number 14; for Hela CellCycMod PI S Phase IC50/EC50: assay number 15; for Hela CellCycMod PI 4N IC50/EC50: assay number 16; for Hela CellCycMod PI MI IC50/EC50: assay number 17; for Hela CellCycMod PI Cell Number IC50/EC50: assay number 18
DLD-1 = experiment: cells; type: cell-based; conditions: for Basal_Viability ATP DLD-1 IC50/EC50: assay number 23
SW480 = experiment: cells; type: cell-based; conditions: for Basal_Viability ATP SW480 IC50/EC50: assay number 24
HCT116 = experiment: cells; type: cell-based; conditions: basal; for Basal_Viability ATP HCT116 IC50/EC50: assay number 25
[4] = system: HCT116 cells treated with a GSK3β inhibitor; experiment: cells; type: cell-based; conditions: for GSK3b inh pretreated_Viability ATP HCT116 IC50/EC50: assay number 26, GSK3b inhibitor pretreated
Colo320 = experiment: cells; type: cell-based; conditions: for Basal_Viability ATP Colo 320 IC50/EC50: assay number 27
HT-29 = experiment: cells; type: cell-based; conditions: for Basal_Viability ATP HT-29 IC50/EC50: assay number 28
RKO = experiment: cells; type: cell-based; conditions: for Basal_Viability ATP RKO IC50/EC50: assay number 29
SNU-C1 = experiment: cells; type: cell-based; conditions: for Basal_Viability ATP SNU-C1 IC50/EC50: assay number 30
hp70S6K1 (RPS6KB1) = molecular target: T1, hp70S6K1 (RPS6KB1) (Homo sapiens, UniProt P23443); experiment: Cerep LANCE kinase assay hp70S6K1 (S1 assay 31); type: biochemical; conditions: for hp70S6K1 LANCE IC50/EC50: assay number 31
T1 construct: purchased Cerep (LANCE kinase assay platform, contract assay)

hKDR = molecular target: T2, hKDR (Homo sapiens, UniProt P35968); experiment: Cerep LANCE kinase assay hKDR (S1 assay 32); type: biochemical; conditions: for hKDR LANCE IC50/EC50: assay number 32
T2 construct: purchased Cerep (LANCE kinase assay platform, contract assay)

hJAK2 = molecular target: T3, hJAK2 (Homo sapiens, UniProt O60674); experiment: Cerep LANCE kinase assay hJAK2 (S1 assay 33); type: biochemical; conditions: for hJAK2 LANCE IC50/EC50: assay number 33
T3 construct: purchased Cerep (LANCE kinase assay platform, contract assay)

hGSK3b = molecular target: T4, hGSK3b (Homo sapiens, UniProt P49841); experiment: Cerep LANCE kinase assay hGSK3b (S1 assay 34); type: biochemical; conditions: for hGSK3b LANCE IC50/EC50: assay number 34
T4 construct: purchased Cerep (LANCE kinase assay platform, contract assay)

hFLT3 = molecular target: T5, hFLT3 (Homo sapiens, UniProt P36888); experiment: Cerep LANCE kinase assay hFLT3 (S1 assay 35); type: biochemical; conditions: for hFLT3 LANCE IC50/EC50: assay number 35
T5 construct: purchased Cerep (LANCE kinase assay platform, contract assay)

[5] = system: ECFC/ADSC co-culture cell nuclei number

T4 sequence (P49841 whole entry): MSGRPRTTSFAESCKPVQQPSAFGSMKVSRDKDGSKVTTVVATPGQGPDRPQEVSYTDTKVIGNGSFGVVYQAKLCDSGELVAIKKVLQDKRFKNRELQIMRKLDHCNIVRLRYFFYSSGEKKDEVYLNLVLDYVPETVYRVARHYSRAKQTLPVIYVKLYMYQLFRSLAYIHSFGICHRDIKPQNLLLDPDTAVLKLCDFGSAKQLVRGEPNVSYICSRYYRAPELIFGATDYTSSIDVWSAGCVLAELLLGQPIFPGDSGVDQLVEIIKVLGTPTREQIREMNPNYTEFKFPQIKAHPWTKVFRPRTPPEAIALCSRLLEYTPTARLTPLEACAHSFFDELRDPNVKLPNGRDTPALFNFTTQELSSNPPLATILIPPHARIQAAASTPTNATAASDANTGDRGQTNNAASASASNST
T1 sequence (P23443 whole entry): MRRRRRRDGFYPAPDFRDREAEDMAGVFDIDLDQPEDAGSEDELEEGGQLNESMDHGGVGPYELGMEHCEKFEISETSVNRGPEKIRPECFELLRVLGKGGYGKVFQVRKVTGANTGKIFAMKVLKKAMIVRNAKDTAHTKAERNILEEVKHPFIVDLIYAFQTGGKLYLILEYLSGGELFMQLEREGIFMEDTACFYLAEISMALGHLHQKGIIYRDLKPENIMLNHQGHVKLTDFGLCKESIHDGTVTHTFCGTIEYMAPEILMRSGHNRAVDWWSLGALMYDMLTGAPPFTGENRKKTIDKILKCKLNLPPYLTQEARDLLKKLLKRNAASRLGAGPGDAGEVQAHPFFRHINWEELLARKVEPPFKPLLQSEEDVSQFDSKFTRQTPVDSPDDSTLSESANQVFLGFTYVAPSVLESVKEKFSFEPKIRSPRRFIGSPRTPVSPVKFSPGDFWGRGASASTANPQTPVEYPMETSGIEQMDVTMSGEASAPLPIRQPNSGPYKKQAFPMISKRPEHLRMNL
T2 sequence (P35968 20-1356): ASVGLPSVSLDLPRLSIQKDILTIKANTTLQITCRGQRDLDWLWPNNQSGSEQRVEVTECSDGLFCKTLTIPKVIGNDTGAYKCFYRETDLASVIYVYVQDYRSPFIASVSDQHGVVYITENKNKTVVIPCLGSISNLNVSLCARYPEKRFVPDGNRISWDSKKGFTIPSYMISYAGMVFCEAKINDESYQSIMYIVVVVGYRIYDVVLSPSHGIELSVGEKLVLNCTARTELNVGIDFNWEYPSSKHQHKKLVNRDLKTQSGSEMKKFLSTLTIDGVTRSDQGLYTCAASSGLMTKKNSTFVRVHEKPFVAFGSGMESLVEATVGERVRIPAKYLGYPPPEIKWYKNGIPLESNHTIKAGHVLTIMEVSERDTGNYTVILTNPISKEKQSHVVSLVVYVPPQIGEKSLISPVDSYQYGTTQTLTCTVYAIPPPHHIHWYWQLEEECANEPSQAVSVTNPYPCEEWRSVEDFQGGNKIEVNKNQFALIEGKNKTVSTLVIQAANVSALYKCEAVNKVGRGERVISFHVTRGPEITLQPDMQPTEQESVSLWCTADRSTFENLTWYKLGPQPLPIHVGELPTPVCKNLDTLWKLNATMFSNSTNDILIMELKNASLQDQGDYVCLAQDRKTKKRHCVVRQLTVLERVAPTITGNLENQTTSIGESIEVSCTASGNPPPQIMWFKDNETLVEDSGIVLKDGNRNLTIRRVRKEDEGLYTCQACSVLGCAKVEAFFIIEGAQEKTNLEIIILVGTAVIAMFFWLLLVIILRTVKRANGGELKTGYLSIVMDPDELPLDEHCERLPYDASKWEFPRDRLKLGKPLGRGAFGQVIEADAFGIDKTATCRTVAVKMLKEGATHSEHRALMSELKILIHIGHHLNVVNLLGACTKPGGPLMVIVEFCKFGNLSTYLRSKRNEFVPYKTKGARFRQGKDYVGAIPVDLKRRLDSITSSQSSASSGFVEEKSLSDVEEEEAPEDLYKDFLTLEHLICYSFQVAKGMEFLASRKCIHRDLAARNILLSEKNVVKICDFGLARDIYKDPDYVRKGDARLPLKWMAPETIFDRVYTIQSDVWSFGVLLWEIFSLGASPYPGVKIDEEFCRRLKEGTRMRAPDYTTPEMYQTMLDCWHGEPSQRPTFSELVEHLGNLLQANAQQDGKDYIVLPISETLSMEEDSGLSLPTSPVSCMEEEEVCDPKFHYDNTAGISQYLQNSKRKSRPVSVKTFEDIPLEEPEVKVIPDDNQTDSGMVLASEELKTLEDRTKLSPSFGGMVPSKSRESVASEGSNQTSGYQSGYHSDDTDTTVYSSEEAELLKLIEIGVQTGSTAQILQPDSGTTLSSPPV
T5 sequence (P36888 27-993): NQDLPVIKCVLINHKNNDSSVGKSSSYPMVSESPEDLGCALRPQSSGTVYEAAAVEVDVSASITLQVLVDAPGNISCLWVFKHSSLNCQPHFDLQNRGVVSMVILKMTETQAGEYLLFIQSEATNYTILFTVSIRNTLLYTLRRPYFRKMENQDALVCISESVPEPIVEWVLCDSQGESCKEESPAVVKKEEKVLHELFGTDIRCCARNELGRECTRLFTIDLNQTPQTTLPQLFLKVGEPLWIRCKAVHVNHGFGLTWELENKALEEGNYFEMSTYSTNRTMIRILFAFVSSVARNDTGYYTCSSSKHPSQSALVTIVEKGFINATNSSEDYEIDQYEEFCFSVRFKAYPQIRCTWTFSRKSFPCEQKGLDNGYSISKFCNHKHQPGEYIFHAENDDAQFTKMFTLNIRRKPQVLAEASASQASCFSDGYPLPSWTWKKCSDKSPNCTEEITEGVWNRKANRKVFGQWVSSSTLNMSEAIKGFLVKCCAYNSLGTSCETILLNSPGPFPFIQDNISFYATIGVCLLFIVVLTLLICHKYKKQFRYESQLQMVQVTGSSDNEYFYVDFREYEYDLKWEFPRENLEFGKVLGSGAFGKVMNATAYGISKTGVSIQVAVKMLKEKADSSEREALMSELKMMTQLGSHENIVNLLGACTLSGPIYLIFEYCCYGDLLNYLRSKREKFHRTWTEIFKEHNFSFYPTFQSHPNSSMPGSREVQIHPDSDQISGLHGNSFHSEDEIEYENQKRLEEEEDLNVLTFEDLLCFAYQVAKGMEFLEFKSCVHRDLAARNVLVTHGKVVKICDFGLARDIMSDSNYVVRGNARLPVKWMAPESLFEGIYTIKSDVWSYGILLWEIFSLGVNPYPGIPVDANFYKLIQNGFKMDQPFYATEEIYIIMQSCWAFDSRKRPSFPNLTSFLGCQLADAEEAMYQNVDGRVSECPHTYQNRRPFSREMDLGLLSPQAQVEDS
T3 sequence (O60674 whole entry): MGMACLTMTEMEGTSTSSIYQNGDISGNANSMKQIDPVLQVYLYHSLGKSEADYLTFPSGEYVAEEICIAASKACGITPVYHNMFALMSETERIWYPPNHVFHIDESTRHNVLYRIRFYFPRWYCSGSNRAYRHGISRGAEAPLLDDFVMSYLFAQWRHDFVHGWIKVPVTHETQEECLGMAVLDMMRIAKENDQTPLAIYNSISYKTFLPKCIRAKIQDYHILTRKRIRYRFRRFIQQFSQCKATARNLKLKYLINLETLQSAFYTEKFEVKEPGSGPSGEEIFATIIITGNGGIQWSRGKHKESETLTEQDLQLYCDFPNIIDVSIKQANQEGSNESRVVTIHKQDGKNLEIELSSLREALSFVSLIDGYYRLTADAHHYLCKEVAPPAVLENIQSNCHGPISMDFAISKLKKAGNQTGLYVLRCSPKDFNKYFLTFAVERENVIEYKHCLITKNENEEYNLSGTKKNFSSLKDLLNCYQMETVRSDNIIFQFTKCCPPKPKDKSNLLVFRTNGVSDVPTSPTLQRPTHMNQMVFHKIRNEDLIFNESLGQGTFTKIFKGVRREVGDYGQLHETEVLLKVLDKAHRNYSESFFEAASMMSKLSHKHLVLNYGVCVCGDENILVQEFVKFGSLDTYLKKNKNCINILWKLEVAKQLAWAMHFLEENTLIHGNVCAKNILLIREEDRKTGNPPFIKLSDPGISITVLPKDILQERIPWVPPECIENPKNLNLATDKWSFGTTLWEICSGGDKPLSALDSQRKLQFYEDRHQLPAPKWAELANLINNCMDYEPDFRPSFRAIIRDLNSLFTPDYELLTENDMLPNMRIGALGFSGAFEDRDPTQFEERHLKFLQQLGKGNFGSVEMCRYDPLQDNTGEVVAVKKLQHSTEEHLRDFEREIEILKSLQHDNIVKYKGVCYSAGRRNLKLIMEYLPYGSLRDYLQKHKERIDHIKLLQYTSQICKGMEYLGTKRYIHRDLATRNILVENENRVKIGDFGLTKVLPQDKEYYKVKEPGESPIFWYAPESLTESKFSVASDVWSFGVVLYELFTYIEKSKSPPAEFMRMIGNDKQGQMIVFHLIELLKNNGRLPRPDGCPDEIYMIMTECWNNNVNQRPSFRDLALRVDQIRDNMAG

Structure (SMILES): COc1cc(NCc2ccc3nc(N)nc(N)c3c2C)cc(OC)c1OC [NCGC00161419-05]
- VEGF_ADSC\ECFC Angio CD31 TubeArea IC50/EC50 [1]: 4.418 µM
- WntCondMedia_bCatenin C2C12 IC50/EC50 [2]: 0.0033 µM
- WntCondMedia_Alk Phos C2C12 IC50/EC50 [3]: > 20 µM
- Hela CellCycMod PI 2N IC50/EC50 (HeLa cells; 2N): > 10 µM
- Hela CellCycMod PI S Phase IC50/EC50 (HeLa cells): > 10 µM
- Hela CellCycMod PI 4N IC50/EC50 (HeLa cells; 4N): > 10 µM
- Hela CellCycMod PI MI IC50/EC50 (HeLa cells; MI): > 10 µM
- Hela CellCycMod PI Cell Number IC50/EC50 (HeLa cells): 3.8068 µM
- Basal_Viability ATP DLD-1 IC50/EC50 (DLD-1): 0.1951 µM
- Basal_Viability ATP SW480 IC50/EC50 (SW480): 0.0591 µM
- Basal_Viability ATP HCT116 IC50/EC50 (HCT116): 0.02309 µM
- GSK3b inh pretreated_Viability ATP HCT116 IC50/EC50 [4]: 0.00392 µM
- Basal_Viability ATP Colo 320 IC50/EC50 (Colo320): 0.3859 µM
- Basal_Viability ATP HT-29 IC50/EC50 (HT-29): 0.02122 µM
- Basal_Viability ATP RKO IC50/EC50 (RKO): 0.00272 µM
- Basal_Viability ATP SNU-C1 IC50/EC50 (SNU-C1): 5.1323 µM
- hp70S6K1 LANCE IC50/EC50 (hp70S6K1 (RPS6KB1)): > 20 µM
- hKDR LANCE IC50/EC50 (hKDR): > 20 µM
- hJAK2 LANCE IC50/EC50 (hJAK2): > 20 µM
- hGSK3b LANCE IC50/EC50 (hGSK3b): > 20 µM
- hFLT3 LANCE IC50/EC50 (hFLT3): > 20 µM
- VEGF_ADSC\ECFC Angio Hoechst NucArea IC50/EC50 [5]: > 10 µM

Structure (SMILES): COc1ccc2cc1Oc1ccc(cc1)C[C@H]1c3c(cc4c(c3Oc3cc5c(cc3OC)CCN(C)[C@@H]5C2)OCO4)CCN1C [NCGC00161621-03]
- VEGF_ADSC\ECFC Angio CD31 TubeArea IC50/EC50 [1]: 3.0213 µM
- WntCondMedia_bCatenin C2C12 IC50/EC50 [2]: 5.6301 µM
- WntCondMedia_Alk Phos C2C12 IC50/EC50 [3]: 2.0494 µM
- Hela CellCycMod PI 2N IC50/EC50 (HeLa cells; 2N): > 10 µM
- Hela CellCycMod PI S Phase IC50/EC50 (HeLa cells): > 10 µM
- Hela CellCycMod PI 4N IC50/EC50 (HeLa cells; 4N): > 10 µM
- Hela CellCycMod PI MI IC50/EC50 (HeLa cells; MI): > 10 µM
- Hela CellCycMod PI Cell Number IC50/EC50 (HeLa cells): 5.5384 µM
- Basal_Viability ATP DLD-1 IC50/EC50 (DLD-1): 12.3697 µM
- Basal_Viability ATP SW480 IC50/EC50 (SW480): 0.308 µM
- Basal_Viability ATP HCT116 IC50/EC50 (HCT116): 9.5422 µM
- GSK3b inh pretreated_Viability ATP HCT116 IC50/EC50 [4]: 3.567 µM
- Basal_Viability ATP Colo 320 IC50/EC50 (Colo320): 1.426 µM
- Basal_Viability ATP HT-29 IC50/EC50 (HT-29): 1.365 µM
- Basal_Viability ATP RKO IC50/EC50 (RKO): 3.787 µM
- Basal_Viability ATP SNU-C1 IC50/EC50 (SNU-C1): 7.483 µM
- hp70S6K1 LANCE IC50/EC50 (hp70S6K1 (RPS6KB1)): > 20 µM
- hKDR LANCE IC50/EC50 (hKDR): > 20 µM
- hJAK2 LANCE IC50/EC50 (hJAK2): > 20 µM
- hGSK3b LANCE IC50/EC50 (hGSK3b): > 20 µM
- hFLT3 LANCE IC50/EC50 (hFLT3): > 20 µM
- VEGF_ADSC\ECFC Angio Hoechst NucArea IC50/EC50 [5]: > 10 µM

Structure (SMILES): COCc1c(C(C)C)nc(C(C)C)c(/C=C/[C@@H](O)C[C@@H](O)CC(=O)[O-])c1-c1ccc(F)cc1.[Na+] [NCGC00164625-04]
- VEGF_ADSC\ECFC Angio CD31 TubeArea IC50/EC50 [1]: 0.0894 µM
- WntCondMedia_bCatenin C2C12 IC50/EC50 [2]: > 6.667 µM
- WntCondMedia_Alk Phos C2C12 IC50/EC50 [3]: > 20 µM
- Hela CellCycMod PI 2N IC50/EC50 (HeLa cells; 2N): > 10 µM
- Hela CellCycMod PI S Phase IC50/EC50 (HeLa cells): > 10 µM
- Hela CellCycMod PI 4N IC50/EC50 (HeLa cells; 4N): > 10 µM
- Hela CellCycMod PI MI IC50/EC50 (HeLa cells; MI): > 10 µM
- Hela CellCycMod PI Cell Number IC50/EC50 (HeLa cells): > 10 µM
- Basal_Viability ATP DLD-1 IC50/EC50 (DLD-1; basal): 2.507 µM
- Basal_Viability ATP SW480 IC50/EC50 (SW480; basal): 0.1433 µM
- Basal_Viability ATP HCT116 IC50/EC50 (HCT116): 0.2403 µM
- GSK3b inh pretreated_Viability ATP HCT116 IC50/EC50 [4]: 0.05291 µM
- Basal_Viability ATP Colo 320 IC50/EC50 (Colo320; basal): 1.924 µM
- Basal_Viability ATP HT-29 IC50/EC50 (HT-29; basal): 1.212 µM
- Basal_Viability ATP RKO IC50/EC50 (RKO; basal): 1.013 µM
- Basal_Viability ATP SNU-C1 IC50/EC50 (SNU-C1; basal): 1.8733 µM
- hp70S6K1 LANCE IC50/EC50 (hp70S6K1 (RPS6KB1)): > 20 µM
- hKDR LANCE IC50/EC50 (hKDR): > 20 µM
- hJAK2 LANCE IC50/EC50 (hJAK2): > 20 µM
- hGSK3b LANCE IC50/EC50 (hGSK3b): > 20 µM
- hFLT3 LANCE IC50/EC50 (hFLT3): > 20 µM
- VEGF_ADSC\ECFC Angio Hoechst NucArea IC50/EC50 [5]: 0.259 µM

Structure (SMILES): O=c1c(-c2ccccc2)c1-c1ccccc1 [NCGC00166113-04]
- IC50/EC50, VEGF_ADSC\ECFC Angio CD31 TubeArea (assay number 2) [1]: 3.8353 µM
- IC50/EC50, WntCondMedia_bCatenin C2C12 (assay number 5) [2]: > 20 µM
- IC50/EC50, WntCondMedia_Alk Phos C2C12 (assay number 6) [3]: 3.6201 µM
- IC50/EC50, Hela CellCycMod PI 2N (assay number 14) (HeLa cells; 2N): > 10 µM
- IC50/EC50, Hela CellCycMod PI 4N (assay number 16) (HeLa cells; 4N): > 10 µM
- IC50/EC50, Hela CellCycMod PI Cell Number (assay number 18) (HeLa cells; Cell Number): 1.6859 µM
- IC50/EC50, Hela CellCycMod PI MI (assay number 17) (HeLa cells; MI): > 10 µM
- IC50/EC50, Basal_Viability ATP DLD-1 (assay number 23) (DLD-1; basal): 4.208 µM
- IC50/EC50, Basal_Viability ATP SW480 (assay number 24) (SW480; basal): > 20 µM
- IC50/EC50, Basal_Viability ATP HCT116 (assay number 25) (HCT116): > 20 µM
- IC50/EC50, GSK3b inh pretreated_Viability ATP HCT116 (assay number 26) ([4]; GSK3b inh pretreated): 7.707 µM
- IC50/EC50, Basal_Viability ATP Colo 320 (assay number 27) (Colo320; basal): 3.1012 µM
- IC50/EC50, Basal_Viability ATP HT-29 (assay number 28) (HT-29; basal): > 20 µM
- IC50/EC50, Basal_Viability ATP RKO (assay number 29) (RKO; basal): > 20 µM
- IC50/EC50, Basal_Viability ATP SNU-C1 (assay number 30) (SNU-C1; basal): > 20 µM
- IC50/EC50, hp70S6K1 LANCE (assay number 31) (hp70S6K1 (RPS6KB1)): > 20 µM
- IC50/EC50, hKDR LANCE (assay number 32) (hKDR): > 20 µM
- IC50/EC50, hJAK2 LANCE (assay number 33) (hJAK2): > 20 µM
- IC50/EC50, hGSK3b LANCE (assay number 34) (hGSK3b): > 20 µM
- IC50/EC50, hFLT3 LANCE (assay number 35) (hFLT3): > 20 µM
- IC50/EC50, VEGF_ADSC\ECFC Angio Hoechst NucArea (assay number 3) [5]: 6.7548 µM
